According to the supplement of paper PMC13380429:

Legend:
Conditions in all cases: 72 h
Caco-2 [1] = assay: relative viability EC50 (midpoint between 100% and the lowest measured viability); higher = less toxic
U2OS [2] = assay: as above
Vero E6 [3] = assay: as above
HepG2 [4] = assay: as above
Calu-3 [5] = assay: as above
Caco-2 [6] = assay: drug sensitivity score (DSS) for viability; higher = more toxic; extreme values may be limits of the assay
U2OS [7] = assay: as above
Vero E6 [8] = assay: as above
HepG2 [9] = assay: as above
Calu-3 [10] = assay: as above
Caco-2 [11] = assay: cell viability relative to DMSO; higher = less toxic
U2OS [12] = assay: as above
Vero E6 [13] = assay: as above
HepG2 [14] = assay: as above
Calu-3 [15] = assay: as above

SMILES	relative viability EC50 (Caco-2 [1]) [µM]	relative viability EC50 (U2OS [2]) [µM]	relative viability EC50 (Vero E6 [3]) [µM]	relative viability EC50 (HepG2 [4]) [µM]	relative viability EC50 (Calu-3 [5]) [µM]	drug sensitivity score (Caco-2 [6])	drug sensitivity score (U2OS [7])	drug sensitivity score (Vero E6 [8])	drug sensitivity score (HepG2 [9])	drug sensitivity score (Calu-3 [10])	cell viability (Caco-2 [11]; 1 nM) [%]	cell viability (Caco-2 [11]; 10 nM) [%]	cell viability (Caco-2 [11]; 100 nM) [%]	cell viability (Caco-2 [11]; 1000 nM) [%]	cell viability (Caco-2 [11]; 10000 nM) [%]	cell viability (U2OS [12]; 1 nM) [%]	cell viability (U2OS [12]; 10 nM) [%]	cell viability (U2OS [12]; 100 nM) [%]	cell viability (U2OS [12]; 1000 nM) [%]	cell viability (U2OS [12]; 10000 nM) [%]	cell viability (Vero E6 [13]; 1 nM) [%]	cell viability (Vero E6 [13]; 10 nM) [%]	cell viability (Vero E6 [13]; 100 nM) [%]	cell viability (Vero E6 [13]; 1000 nM) [%]	cell viability (Vero E6 [13]; 10000 nM) [%]	cell viability (HepG2 [14]; 1 nM) [%]	cell viability (HepG2 [14]; 10 nM) [%]	cell viability (HepG2 [14]; 100 nM) [%]	cell viability (HepG2 [14]; 1000 nM) [%]	cell viability (HepG2 [14]; 10000 nM) [%]	cell viability (Calu-3 [15]; 1 nM) [%]	cell viability (Calu-3 [15]; 10 nM) [%]	cell viability (Calu-3 [15]; 100 nM) [%]	cell viability (Calu-3 [15]; 1000 nM) [%]	cell viability (Calu-3 [15]; 10000 nM) [%]
CNC(=O)c1ccc2cc([C@@]3(O)CCn4cncc43)ccc2c1 [orteronel]	> 10	> 10	> 10	> 10	> 10	0	0	0	0	0	88.1	91.3	94.2	99.8	96.6	99.8	99	101	99	98.9	99.7	104	99.8	100	94.6	103	104	90.1	104	90	102	108	99.4	105	108
CC(=O)C1=C(O)C=C2Oc3c(C(C)=O)c(O)c(C)c(O)c3C2(C)C1=O (stereo not drawn) [usniacin-(+)]	> 10	> 10	> 10	> 10	> 10	0	0	0	0	0	104	101	91.1	95.6	108	98.9	75.3	95.8	83.5	95.5	101	95.4	100	98.9	101	111	97.1	102	110	94	107	99.4	95.2	113	96.4
Cc1nc(Nc2ncc(C(=O)Nc3c(C)cccc3Cl)s2)cc(N2CCN(CCO)CC2)n1 [dasatinib]	0.201	0.33	0.218	1.62	0.0245	12.9	10.3	15.9	6.2	24.7	101	97.6	77	45.5	33.2	100	93.9	85	53.9	36.8	99	93.1	76.1	29.6	16.9	102	99	87.1	80.6	30.1	95.1	72	36.6	30.2	18.1
CN1CCC2=C(C1)C(c1ccccc1)c1ccccc12 (stereo not given) [phenindamine]	> 10	> 10	> 10	> 10	> 10	0	0	0	0	0	97.4	95.1	99.1	102	89	94	100	93.8	98	92.6	98.9	96.3	97.4	99.7	97.2	97	88.6	98.2	94.3	88.9	96.7	107	98.2	106	99.1
O=C(Nc1ccc(O)cc1)c1ccccc1O [N-salicoylaminophenol]	> 10	> 10	> 10	> 10	> 10	0	0	0	0	0	94.3	96	97.4	94.7	92.7	96.6	98.1	95.6	97.4	93.3	93.2	99.4	90.9	93.1	110	90.2	106	92.1	105	113	105	99.1	95.2	94.1	94.7
CCOC(=O)[C@H]1O[C@@H]1C(=O)N[C@@H](CC(C)C)C(=O)NCCC(C)C [aloxistatin]	> 10	> 10	> 10	> 10	> 10	0	0	0	0.2	0	97.6	98.8	90.5	102	98	99.6	102	94.7	102	97.6	106	109	108	102	99.2	118	102	96.1	90.7	88.8	91.7	99.3	107	101	99.5
CCCCCCCCCCCCCCCCCCCCCCCCCCCCO [1-octacosanol]	> 10	> 10	> 10	> 10	> 10	0	0	0	0	0	95.4	85.8	97	91.8	95	97.6	96.5	102	96.2	96	95.5	98.5	96.7	95.6	104	103	109	97.6	116	102	99.1	105	102	95.5	96.1
